Test results published in ChEMBL document CHEMBL1201862, “PubChem BioAssay data set” (2004).
Activity calls are given as the source filed them.

Legend:
[1] = Luminescence Cell-Based Dose Confirmation HTS to Identify Activators of 5'UTR Stem-Loop Driven Alpha-Synuclein mRNA Translation in H4 Neuroglioblastoma Cells. [Related pubchem assays: 1829 (Project Summary), 1814 (Primary HTS)]; format: functional
[2] = target: T1, Rac GTPase-activating protein 1 (Homo sapiens, UniProt Q9H0H5); assay: MgcRacGAP GTPase-activating activity inhibitors, confirmation, biochemical, ADP Hunter fluorescence, primary and confirmatory (AID 624330); format: functional
T1 sequence (Q9H0H5 whole entry): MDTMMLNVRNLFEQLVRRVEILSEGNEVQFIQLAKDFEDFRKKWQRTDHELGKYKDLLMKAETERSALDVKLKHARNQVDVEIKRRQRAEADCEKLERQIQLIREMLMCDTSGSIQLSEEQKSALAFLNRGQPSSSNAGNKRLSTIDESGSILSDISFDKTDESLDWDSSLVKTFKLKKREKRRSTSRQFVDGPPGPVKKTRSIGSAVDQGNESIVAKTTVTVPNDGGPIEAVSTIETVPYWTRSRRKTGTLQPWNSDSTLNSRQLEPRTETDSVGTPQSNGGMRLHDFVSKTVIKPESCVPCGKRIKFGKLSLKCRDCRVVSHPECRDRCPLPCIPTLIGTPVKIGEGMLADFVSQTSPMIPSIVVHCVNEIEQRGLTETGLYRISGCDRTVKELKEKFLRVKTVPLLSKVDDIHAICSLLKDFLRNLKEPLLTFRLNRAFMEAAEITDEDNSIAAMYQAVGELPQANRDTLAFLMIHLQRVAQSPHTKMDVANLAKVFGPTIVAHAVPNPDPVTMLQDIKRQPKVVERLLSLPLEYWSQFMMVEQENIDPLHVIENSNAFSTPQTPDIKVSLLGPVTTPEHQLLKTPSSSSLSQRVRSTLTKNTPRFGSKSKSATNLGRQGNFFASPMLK

[3] = system: HEK293; assay: cells; format: functional, cell-based; conditions: Homo sapiens
[4] = target: T2, Histone-lysine N-methyltransferase NSD2 (Homo sapiens, UniProt O96028); format: biochemical
T2 sequence (O96028 whole entry): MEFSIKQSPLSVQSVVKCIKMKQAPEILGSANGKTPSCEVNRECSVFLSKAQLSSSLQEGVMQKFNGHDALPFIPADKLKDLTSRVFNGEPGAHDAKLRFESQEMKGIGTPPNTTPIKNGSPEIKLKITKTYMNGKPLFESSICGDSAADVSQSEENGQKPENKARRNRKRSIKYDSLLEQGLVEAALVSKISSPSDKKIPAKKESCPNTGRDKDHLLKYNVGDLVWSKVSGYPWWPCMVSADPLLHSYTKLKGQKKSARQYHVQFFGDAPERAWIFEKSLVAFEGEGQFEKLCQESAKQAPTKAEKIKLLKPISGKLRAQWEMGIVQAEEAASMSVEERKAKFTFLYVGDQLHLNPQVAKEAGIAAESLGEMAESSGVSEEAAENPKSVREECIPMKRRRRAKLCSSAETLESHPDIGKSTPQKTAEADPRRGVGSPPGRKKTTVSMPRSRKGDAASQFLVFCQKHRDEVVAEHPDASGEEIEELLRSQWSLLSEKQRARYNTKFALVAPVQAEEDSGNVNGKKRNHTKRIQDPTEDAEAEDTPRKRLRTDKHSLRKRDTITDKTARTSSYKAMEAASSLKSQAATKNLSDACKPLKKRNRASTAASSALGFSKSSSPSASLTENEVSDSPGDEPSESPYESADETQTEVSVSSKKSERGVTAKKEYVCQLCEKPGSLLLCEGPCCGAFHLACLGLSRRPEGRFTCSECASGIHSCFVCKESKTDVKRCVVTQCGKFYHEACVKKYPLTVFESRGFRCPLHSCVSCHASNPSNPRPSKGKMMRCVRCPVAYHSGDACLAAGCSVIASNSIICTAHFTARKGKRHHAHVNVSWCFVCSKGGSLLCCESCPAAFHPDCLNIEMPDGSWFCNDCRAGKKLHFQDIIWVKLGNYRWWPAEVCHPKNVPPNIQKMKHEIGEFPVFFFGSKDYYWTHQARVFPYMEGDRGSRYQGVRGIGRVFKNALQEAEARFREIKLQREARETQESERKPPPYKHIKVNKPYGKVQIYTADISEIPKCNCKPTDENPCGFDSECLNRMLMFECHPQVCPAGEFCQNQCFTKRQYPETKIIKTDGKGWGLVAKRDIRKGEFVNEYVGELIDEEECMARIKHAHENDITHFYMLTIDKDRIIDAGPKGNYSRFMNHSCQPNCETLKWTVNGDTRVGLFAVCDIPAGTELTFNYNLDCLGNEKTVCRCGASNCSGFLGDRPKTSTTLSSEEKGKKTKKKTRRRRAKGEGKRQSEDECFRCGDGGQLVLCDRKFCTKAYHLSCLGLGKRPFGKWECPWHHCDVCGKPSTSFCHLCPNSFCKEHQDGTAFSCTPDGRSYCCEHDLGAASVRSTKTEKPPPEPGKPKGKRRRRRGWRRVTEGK

[5] = target: Serine/threonine-protein kinase pim-3 (Homo sapiens, UniProt Q86V86); format: functional;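 further: value obtained as one member of a broad kinase panel profiling effort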
[6] = target: Ribosomal protein S6 kinase alpha-3 (Homo sapiens, UniProt P51812); format: functional;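 further: measured within a kinome-wide profiling panel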
[7] = target: Mitogen-activated protein kinase kinase kinase kinase 4 (Homo sapiens, UniProt O95819); format: functional
[8] = target: Cyclin-dependent kinase 2 (Homo sapiens, UniProt P24941); format: functional;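 further: CDK2 measured as one member of a broad kinome profiling panel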
[9] = target: Mast/stem cell growth factor receptor Kit (Homo sapiens, UniProt P10721); format: functional;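 further: KIT entry within a kinase panel assay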
[10] = target: cAMP-dependent protein kinase catalytic subunit PRKX (Homo sapiens, UniProt P51817); format: functional
[11] = target: Dual specificity protein kinase CLK2 (Homo sapiens, UniProt P49760); format: functional
[12] = target: Tyrosine-protein kinase Lyn (Homo sapiens, UniProt P07948); format: functional;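 further: lyn as one member of a kinase panel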
[13] = target: Serine/threonine-protein kinase TAO1 (Homo sapiens, UniProt Q7L7X3); format: functional
[14] = target: Serine/threonine-protein kinase PLK4 (Homo sapiens, UniProt O00444); format: functional;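 further: PLK4 measured as one member of a kinome-wide kinase profiling panel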
[15] = target: Megakaryocyte-associated tyrosine-protein kinase (Homo sapiens, UniProt P42679); format: functional;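 further: affinity measured as one member of a kinase panel (Navigating the Kinome) against MATK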
[16] = target: Tyrosine-protein kinase Srms (Homo sapiens, UniProt Q9H3Y6); format: functional;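 further: SRMS measured as one member of a kinome-wide kinase profiling panel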
[17] = cells; format: functional, cell-based
[18] = target: Kappa-type opioid receptor (Homo sapiens, UniProt P41145); format: functional

Sequence of cAMP-dependent protein kinase catalytic subunit PRKX (P51817 whole entry): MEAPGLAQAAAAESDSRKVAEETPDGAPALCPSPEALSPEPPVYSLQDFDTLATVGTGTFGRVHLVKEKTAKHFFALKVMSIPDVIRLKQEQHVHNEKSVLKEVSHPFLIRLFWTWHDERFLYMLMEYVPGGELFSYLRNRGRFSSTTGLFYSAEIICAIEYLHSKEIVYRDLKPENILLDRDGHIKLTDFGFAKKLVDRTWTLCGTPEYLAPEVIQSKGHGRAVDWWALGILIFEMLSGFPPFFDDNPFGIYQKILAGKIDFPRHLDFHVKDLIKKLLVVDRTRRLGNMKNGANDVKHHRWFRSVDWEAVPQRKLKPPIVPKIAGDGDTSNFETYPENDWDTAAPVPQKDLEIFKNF
Sequence of Tyrosine-protein kinase Srms (Q9H3Y6 whole entry): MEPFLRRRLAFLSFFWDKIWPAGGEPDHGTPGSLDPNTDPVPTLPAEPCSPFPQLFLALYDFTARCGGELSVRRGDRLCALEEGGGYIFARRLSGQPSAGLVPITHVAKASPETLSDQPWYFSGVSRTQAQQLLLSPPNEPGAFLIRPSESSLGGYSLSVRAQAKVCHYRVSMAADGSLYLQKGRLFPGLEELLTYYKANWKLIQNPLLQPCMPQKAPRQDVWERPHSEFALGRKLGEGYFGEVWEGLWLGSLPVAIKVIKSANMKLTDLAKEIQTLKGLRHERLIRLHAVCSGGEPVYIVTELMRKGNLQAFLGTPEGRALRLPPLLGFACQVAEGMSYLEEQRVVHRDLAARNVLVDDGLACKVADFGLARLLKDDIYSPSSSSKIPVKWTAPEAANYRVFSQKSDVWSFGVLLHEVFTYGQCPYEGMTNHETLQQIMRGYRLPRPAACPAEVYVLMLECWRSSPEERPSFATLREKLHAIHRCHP
Sequence of Mast/stem cell growth factor receptor Kit (P10721 whole entry): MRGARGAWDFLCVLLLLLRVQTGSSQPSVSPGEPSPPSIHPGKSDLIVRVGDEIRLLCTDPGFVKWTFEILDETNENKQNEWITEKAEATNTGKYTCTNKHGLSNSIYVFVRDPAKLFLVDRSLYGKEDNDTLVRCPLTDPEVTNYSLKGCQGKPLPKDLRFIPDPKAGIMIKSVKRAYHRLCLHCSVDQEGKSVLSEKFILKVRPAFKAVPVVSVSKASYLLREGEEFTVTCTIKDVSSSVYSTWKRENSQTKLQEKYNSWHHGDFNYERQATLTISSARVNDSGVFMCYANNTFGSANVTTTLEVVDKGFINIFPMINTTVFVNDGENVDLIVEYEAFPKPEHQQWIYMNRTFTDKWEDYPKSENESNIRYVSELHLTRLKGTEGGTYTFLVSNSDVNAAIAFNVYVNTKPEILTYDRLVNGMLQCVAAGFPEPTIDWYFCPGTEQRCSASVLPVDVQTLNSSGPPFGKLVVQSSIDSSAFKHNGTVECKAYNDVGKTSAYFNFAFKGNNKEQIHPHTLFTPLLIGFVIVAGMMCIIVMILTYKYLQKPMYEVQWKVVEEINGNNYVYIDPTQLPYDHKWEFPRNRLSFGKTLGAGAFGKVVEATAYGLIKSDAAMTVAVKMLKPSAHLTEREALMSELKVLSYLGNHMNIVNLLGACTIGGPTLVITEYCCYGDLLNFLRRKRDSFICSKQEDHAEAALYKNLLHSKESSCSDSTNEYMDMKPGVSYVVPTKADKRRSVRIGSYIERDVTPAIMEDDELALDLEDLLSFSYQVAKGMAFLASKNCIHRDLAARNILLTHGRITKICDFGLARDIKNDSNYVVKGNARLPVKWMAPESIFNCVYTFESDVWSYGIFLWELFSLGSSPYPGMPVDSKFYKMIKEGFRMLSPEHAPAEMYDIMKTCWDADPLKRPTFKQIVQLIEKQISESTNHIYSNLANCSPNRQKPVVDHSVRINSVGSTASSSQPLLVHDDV
Sequence of Megakaryocyte-associated tyrosine-protein kinase (P42679 whole entry): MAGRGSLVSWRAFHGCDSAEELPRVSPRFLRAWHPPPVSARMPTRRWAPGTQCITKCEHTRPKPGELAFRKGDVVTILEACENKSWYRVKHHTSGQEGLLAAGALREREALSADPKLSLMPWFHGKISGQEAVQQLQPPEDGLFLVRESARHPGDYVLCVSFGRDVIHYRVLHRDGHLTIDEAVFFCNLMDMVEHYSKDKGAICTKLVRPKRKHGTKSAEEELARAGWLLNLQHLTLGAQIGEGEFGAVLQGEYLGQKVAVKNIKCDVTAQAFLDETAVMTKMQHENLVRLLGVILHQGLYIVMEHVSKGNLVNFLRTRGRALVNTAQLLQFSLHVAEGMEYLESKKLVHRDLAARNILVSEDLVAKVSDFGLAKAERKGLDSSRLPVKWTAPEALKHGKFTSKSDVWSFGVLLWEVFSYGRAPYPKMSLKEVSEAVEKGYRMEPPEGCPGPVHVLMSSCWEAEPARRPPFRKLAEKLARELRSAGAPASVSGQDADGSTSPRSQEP
Sequence of Ribosomal protein S6 kinase alpha-3 (P51812 whole entry): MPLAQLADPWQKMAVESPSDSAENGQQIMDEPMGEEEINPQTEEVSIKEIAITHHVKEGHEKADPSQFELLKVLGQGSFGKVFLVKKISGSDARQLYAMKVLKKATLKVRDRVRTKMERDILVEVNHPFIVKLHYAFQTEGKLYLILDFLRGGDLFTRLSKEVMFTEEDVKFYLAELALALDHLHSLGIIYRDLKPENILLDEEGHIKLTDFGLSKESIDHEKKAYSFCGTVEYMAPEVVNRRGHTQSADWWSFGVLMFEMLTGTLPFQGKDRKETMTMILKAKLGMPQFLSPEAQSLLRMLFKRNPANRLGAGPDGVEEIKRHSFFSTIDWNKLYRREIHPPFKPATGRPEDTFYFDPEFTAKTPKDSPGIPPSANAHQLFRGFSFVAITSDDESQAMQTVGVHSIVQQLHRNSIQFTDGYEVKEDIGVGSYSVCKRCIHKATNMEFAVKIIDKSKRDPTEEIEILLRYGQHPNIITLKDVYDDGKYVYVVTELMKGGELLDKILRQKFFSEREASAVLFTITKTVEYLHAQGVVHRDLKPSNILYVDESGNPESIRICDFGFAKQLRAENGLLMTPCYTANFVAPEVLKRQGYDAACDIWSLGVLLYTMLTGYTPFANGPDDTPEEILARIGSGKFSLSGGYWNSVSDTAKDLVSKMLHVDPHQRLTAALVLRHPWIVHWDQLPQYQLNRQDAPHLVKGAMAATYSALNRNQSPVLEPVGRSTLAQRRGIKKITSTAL
Sequence of Dual specificity protein kinase CLK2 (P49760 whole entry): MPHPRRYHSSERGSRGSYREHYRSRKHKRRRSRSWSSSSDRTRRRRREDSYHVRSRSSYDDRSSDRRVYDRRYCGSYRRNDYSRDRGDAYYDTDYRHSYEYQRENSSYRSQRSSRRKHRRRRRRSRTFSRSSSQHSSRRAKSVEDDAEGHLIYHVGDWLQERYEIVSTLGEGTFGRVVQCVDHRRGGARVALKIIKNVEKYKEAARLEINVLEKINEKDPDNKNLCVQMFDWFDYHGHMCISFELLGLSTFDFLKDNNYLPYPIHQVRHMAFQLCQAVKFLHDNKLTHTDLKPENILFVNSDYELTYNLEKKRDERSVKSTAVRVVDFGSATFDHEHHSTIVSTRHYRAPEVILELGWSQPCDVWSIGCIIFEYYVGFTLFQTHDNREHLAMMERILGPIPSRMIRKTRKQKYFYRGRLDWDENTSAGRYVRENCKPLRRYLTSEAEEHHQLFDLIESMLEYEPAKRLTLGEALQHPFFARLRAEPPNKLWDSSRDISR
Sequence of Mitogen-activated protein kinase kinase kinase kinase 4 (O95819 whole entry): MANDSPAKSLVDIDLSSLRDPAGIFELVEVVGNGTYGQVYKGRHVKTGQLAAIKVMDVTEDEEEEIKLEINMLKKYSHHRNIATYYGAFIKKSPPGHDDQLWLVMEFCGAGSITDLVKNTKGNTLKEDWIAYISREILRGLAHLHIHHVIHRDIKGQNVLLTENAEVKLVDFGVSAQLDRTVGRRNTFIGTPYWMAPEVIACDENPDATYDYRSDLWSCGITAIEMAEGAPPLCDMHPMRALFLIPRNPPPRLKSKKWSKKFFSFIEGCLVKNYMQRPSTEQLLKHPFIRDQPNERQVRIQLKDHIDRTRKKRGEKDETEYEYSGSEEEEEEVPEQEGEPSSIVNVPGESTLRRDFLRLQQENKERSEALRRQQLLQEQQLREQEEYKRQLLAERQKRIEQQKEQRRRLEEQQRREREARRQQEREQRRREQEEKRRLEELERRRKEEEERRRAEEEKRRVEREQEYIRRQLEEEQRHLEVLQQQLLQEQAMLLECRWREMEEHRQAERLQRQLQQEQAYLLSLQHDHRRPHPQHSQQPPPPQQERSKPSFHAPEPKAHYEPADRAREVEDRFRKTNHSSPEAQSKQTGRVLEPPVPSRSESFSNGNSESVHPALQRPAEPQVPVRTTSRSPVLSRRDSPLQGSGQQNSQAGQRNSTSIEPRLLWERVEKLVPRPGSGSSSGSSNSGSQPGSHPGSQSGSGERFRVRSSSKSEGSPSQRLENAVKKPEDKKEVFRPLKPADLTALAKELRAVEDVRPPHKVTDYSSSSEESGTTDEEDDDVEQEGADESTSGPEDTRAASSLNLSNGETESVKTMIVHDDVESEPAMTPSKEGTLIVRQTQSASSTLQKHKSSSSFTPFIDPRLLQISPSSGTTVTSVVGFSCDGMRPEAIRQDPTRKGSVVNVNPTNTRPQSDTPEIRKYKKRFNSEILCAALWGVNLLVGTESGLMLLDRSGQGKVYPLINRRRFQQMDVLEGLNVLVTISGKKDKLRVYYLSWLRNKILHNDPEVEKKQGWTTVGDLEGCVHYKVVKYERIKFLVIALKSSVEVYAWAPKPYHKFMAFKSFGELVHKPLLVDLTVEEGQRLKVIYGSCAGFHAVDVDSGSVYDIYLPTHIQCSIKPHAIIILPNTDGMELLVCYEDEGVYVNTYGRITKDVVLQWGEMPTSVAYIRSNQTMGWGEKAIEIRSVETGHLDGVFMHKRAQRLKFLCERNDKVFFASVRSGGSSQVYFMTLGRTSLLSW

For CN(C)c1ncc(C2=C(Cl)C(=O)C(N3CCCC3)=C(Cl)C2=O)s1, the EC50 [1] was > 120000 nM (not active) and the IC50 [2] was 89500 nM (active).
For O=C1C(O)=C/C(=N\c2ccccc2O)c2ccccc21, the IC50 [3] was > 20000 nM (inactive) and the AC50 [4] was 2390 nM (active).
With O=C1NC(=S)SC1=C1C(=O)Nc2ccc(Br)cc21 the Ki [5] was 50.1 nM (active), the Ki [6] was > 7940 nM (inactive) and the Ki [7] was 631 nM (active). The Ki [8] was > 7940 nM (inactive), the Ki [9] was > 1260 nM (inactive) and the Ki [10] was > 1580 nM (inactive). The Ki [11] was 7940 nM (active), the Ki [12] was > 1580 nM (inactive) and the Ki [13] was 5010 nM (active). The Ki [14] was 1260 nM (active), the Ki [15] was > 2000 nM (inactive) and the Ki [16] was > 1580 nM (inactive).
In the case of Cc1cnc(NC(=O)c2sc3ccccc3c2Cl)s1, the IC50 [17] is reported as > 67500 nM (inactive).
In the case of Cc1ccc(Nc2cc(C)nn2-c2nc(C)cc(O)n2)cc1, the IC50 [18] is reported as 747 nM (active).
